This note sets out measurements from patent US20230117034A1, “PYRAZOLOTRIAZINES” (Bayer Aktiengesellschaft, priority 2019, published 2023).

For one experiment, the target named is CDK12/CycK (Homo sapiens, UniProt Q9NYV4). In words: CDK12/CycK high ATP kinase assay (TR-FRET, 2 mM ATP). Type of experiment: biochemical. To be noted: 2 mM ATP (high ATP); median; read-out: CDK12/CyclinK, 2 mM ATP (high ATP), IC50-[mol/l] (median). The procedure, abridged: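 His-tagged human CDK12/CycK (~0.75 nM) pre-incubated 15 min with compound, then 60 min at 22 °C with 2 mM ATP and 1 µM biotinylated peptide (HEPES pH 7.5, 20 mM MgCl2). EDTA stop; phospho-Ser62 antibody/Eu anti-rabbit and streptavidin-XL665 TR-FRET, 665/620 nm ratio normalised to give IC50.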
Sequence of CDK12/CycK (Q9NYV4 with tags, fused parts or gaps): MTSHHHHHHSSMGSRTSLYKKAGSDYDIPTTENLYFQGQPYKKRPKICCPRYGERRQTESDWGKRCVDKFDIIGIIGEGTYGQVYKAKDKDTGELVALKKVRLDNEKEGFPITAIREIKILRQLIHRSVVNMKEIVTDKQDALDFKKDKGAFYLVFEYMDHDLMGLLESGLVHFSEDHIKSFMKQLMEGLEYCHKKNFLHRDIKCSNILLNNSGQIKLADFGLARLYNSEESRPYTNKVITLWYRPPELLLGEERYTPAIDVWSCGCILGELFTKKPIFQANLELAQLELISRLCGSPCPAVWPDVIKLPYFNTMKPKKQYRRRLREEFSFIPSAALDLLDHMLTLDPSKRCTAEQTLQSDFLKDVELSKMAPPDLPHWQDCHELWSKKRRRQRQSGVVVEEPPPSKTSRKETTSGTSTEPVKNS
Sequence of CDK12/CycK (O75909 1-300 partner limits assumed): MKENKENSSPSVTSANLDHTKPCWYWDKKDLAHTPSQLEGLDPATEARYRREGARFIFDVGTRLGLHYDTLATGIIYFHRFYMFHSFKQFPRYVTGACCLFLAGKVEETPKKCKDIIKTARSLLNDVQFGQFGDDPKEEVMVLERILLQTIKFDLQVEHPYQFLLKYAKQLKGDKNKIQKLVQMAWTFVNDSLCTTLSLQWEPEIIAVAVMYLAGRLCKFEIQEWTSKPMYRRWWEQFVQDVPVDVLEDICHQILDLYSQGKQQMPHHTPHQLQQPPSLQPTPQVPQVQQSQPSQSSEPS

The subject of experiment [1] is CAL-120, human breast adenocarcinoma cells. Nature of the experiment: Proliferation assay CAL-120 (crystal violet, 4 days). Type of experiment: cell-based. The settings on record: Homo sapiens, CAL-120, 96 h, CAL-120 cells, median, read-out: Prolif-CAL-120, IC50-[mol/l] (median). The method in brief: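 CAL-120 or MDA-MB-231 cells grown 24 h, then exposed 4 days to compound (0.01–10 micromol/L, 0.1% DMSO). Crystal violet staining, absorbance at 595 nm, normalised to a zero-point plate (0%) and untreated cells (100%); IC50 by 4-parameter fit.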

pIC50: −log10 of the molar value.

As for `OC[C@@H]1CCCCN1c1nc(NCc2nc3ccccc3[nH]2)n2ncc(Br)c2n1` [Example 59, [(2S)-1-(4-{[(1H-benzimidazol-2-yl)methyl]amino}-8-bromopyrazolo[1,5-a][1,3,5]triazin-2-yl)piperidin-2-yl]methanol], the figures for the pIC50 (at CDK12/CycK; in experiment [1]) were 6.26 and 7.90, respectively.

Regarding `Fc1ccc2[nH]c(CNc3nc(N4CCN5CCC4CC5)nc4c(C(F)(F)F)cnn34)nc2c1F` [Example 407, 2-(1,4-diazabicyclo[3.2.2]nonan-4-yl)-N-[(4,5-difluoro-1H-benzimidazol-2-yl)methyl]-8-(trifluoromethyl)pyrazolo[1,5-a][1,3,5]triazin-4-amine], the pIC50 was 6.15 at CDK12/CycK and 9.03 in experiment [1].

`FC(F)Cc1cnn2c(NCc3nc4ccccc4[nH]3)nc(N3CCOCC3)nc12.O=C(O)C(F)(F)F` [Example 444, trifluoroacetic acid N-[(1H-benzimidazol-2-yl)methyl]-8-(2,2-difluoroethyl)-2-(morpholin-4-yl)pyrazolo[1,5-a][1,3,5]triazin-4-amine]: the pIC50 at CDK12/CycK was 5.07; in experiment [1], 7.83.

In the case of `Brc1cnn2c(NCc3nc4ccccc4[nH]3)nc(OC3CCNCC3)nc12` [Example 411, N-[(1H-benzimidazol-2-yl)methyl]-8-bromo-2-[(piperidin-4-yl)oxy]pyrazolo[1,5-a][1,3,5]triazin-4-amine], the pIC50 is under 4.70 on CDK12/CycK and 7.10 in experiment [1].

For the compound `CCc1cnn2c(NCc3nc4c(OC)cccc4[nH]3)nc(N3CCOCC3)nc12` [Example 433, 8-ethyl-N-[(4-methoxy-1H-benzimidazol-2-yl)methyl]-2-(morpholin-4-yl)pyrazolo[1,5-a][1,3,5]triazin-4-amine], the pIC50 was 5.57 on CDK12/CycK and 7.88 in experiment [1].

Take `Brc1cnn2c(NCc3nc4ccccc4[nH]3)nc(OCC3CC3)nc12` [Example 408, N-[(1H-benzimidazol-2-yl)methyl]-8-bromo-2-(cyclopropylmethoxy)pyrazolo[1,5-a][1,3,5]triazin-4-amine]: the pIC50 on CDK12/CycK was under 4.70; in experiment [1], 6.60.

With `Brc1cnn2c(NCc3nnc(-c4ccccc4)[nH]3)nc(N3CCCCC3)nc12` [Example 49, 8-bromo-N-[(5-phenyl-4H-1,2,4-triazol-3-yl)methyl]-2-(piperidin-1-yl)pyrazolo[1,5-a][1,3,5]triazin-4-amine], the pIC50 on CDK12/CycK was 5.21; in experiment [1], 7.36.

Turning to `N#Cc1cnn2c(NCc3nc4ccccc4[nH]3)nc(N3CCOCC3)nc12` [Example 43, 4-{[(1H-benzimidazol-2-yl)methyl]amino}-2-(morpholin-4-yl)pyrazolo[1,5-a][1,3,5]triazine-8-carbonitrile], the values for the pIC50 (on CDK12/CycK; in experiment [1]) were under 4.77 and 6.88, respectively.

On to `COc1cccc(-c2nnc(CNc3nc(N4CCOCC4)nc4c(Br)cnn34)[nH]2)c1` [Example 50, 8-bromo-N-{[5-(3-methoxyphenyl)-4H-1,2,4-triazol-3-yl]methyl}-2-(morpholin-4-yl)pyrazolo[1,5-a][1,3,5]triazin-4-amine], for which the pIC50 is 5.55 on CDK12/CycK and 7.53 in experiment [1].

Regarding `Cc1cnn2c(NCc3nc4c(F)c(F)ccc4[nH]3)nc(N3CCOCC3)nc12` [Example 392, N-[(4,5-difluoro-1H-benzimidazol-2-yl)methyl]-8-methyl-2-(morpholin-4-yl)pyrazolo[1,5-a][1,3,5]triazin-4-amine], the figures for the pIC50 (on CDK12/CycK; in experiment [1]) were 5.36 and 8.33, respectively.
